Measured values taken from publication PMC10518257 (Nature Cancer, 2023).
“And” between values parts separate entries of the source, which are not always exact repeats. Equal values may be shown once.

Columns and labels:
[1] = test system: NIH-3T3-CCDC6::RET xenografts; assay: Subcutaneous xenograft efficacy study
ECLC5 xenografts = assay: Subcutaneous xenograft efficacy study; settings: for Change in Tumor Volume: end of study, individual tumors
[2] = Transcellular transport study, apparent permeability; settings: pig, LLC-PK1
[3] = 50 mg/kg BID, day 0, individual animals
[4] = 50 mg/kg QD, day 0, individual animals
[5] = 100 mg/kg QD, day 0, individual animals

COCc1ccc(NC(=O)c2c(C#CCN3CCOCC3)n(C3(C)CC3)c3ncnc(N)c23)cc1 [Vepafestinib, 4-amino-N-[4-(methoxymethyl)phenyl]-7-(1-methylcyclopropyl)-6-[3-(morpholin-4-yl)prop-1-yn-1-yl]-7H-pyrrolo[2,3-d]pyrimidine-5-carboxamide]
Area Under Curve of tumor growth, Mean ([1]; 50 mg/kg BID): 678.7 | Tumor volume [1, 3]: 90.28 mm3 | Tumor volume ([1]; 50 mg/kg BID, day 5, individual animals): 225.29 mm3 and 277.15 mm3 and 217.15 mm3 and 205.88 mm3 and 223.64 mm3 | Tumor volume ([1]; 50 mg/kg BID, day 8, individual animals): 231.59 mm3 and 332.9 mm3 and 291.54 mm3 and 235.62 mm3 (2×) | Tumor volume [1, 4]: 93.59 mm3 and 83.97 mm3 (2×) and 85.5 mm3 and 90.28 mm3 | Tumor volume ([1]; 50 mg/kg QD, day 5, individual animals): 270.08 mm3 and 180.15 mm3 and 189.86 mm3 and 245.54 mm3 and 226.78 mm3 | Tumor volume ([1]; 50 mg/kg QD, day 8, individual animals): 466.45 mm3 and 389.65 mm3 and 491.45 mm3 and 378.3 mm3 and 446.6 mm3 | Area Under Curve of tumor growth, Mean ([1]; 100 mg/kg QD): 371 | Tumor volume [1, 5]: 83.97 mm3 (4×) and 85.5 mm3 | Tumor volume ([1]; 100 mg/kg QD, day 5, individual animals): 153.78 mm3 and 149.63 mm3 and 176.28 mm3 and 145.47 mm3 and 154.42 mm3 | Tumor volume ([1]; 100 mg/kg QD, day 8, individual animals): 153.78 mm3 and 197.55 mm3 and 200.12 mm3 (2×) and 192.42 mm3 | Area Under Curve of tumor growth, Mean (ECLC5 xenografts; 25 mg/kg BID): -1045 | Tumor volume (ECLC5 xenografts; 25 mg/kg BID, day 0, individual animals): 91.87 mm3 (2×) and 88.56 mm3 (2×) and 85.31 mm3 | Tumor volume (ECLC5 xenografts; 25 mg/kg BID, day 4, individual animals): 74.9 mm3 (2×) and 77.87 mm3 and 71.99 mm3 and 69.38 mm3 | Tumor volume (ECLC5 xenografts; 25 mg/kg BID, day 7, individual animals): 60.32 mm3 (2×) and 59.11 mm3 and 58.99 mm3 (2×) | Tumor volume (ECLC5 xenografts; 25 mg/kg BID, day 11, individual animals): 60.32 mm3 and 48.77 mm3 and 55.52 mm3 and 54.07 mm3 (2×) | Tumor volume (ECLC5 xenografts; 25 mg/kg BID, day 14, individual animals): 60.32 mm3 and 48.77 mm3 and 55.52 mm3 and 54.07 mm3 (2×) | Change in Tumor Volume (ECLC5 xenografts; 25 mg/kg BID): -43.3221% and -50.8017% and -52.5743% and -65.5492% and -27.8004% | tumor regression (ECLC5 xenografts; 50 mg per kg BID): 100% ± 0% | Area Under Curve of tumor growth, Mean (ECLC5 xenografts; 50 mg/kg BID): -1486 | Tumor volume (ECLC5 xenografts; [3]): 83.83 mm3 and 88.56 mm3 (2×) and 87.03 mm3 and 85.31 mm3 | Tumor volume (ECLC5 xenografts; 50 mg/kg BID, day 4, individual animals): 68.07 mm3 and 72.18 mm3 (2×) and 66.63 mm3 (2×) | Tumor volume (ECLC5 xenografts; 50 mg/kg BID, day 7, individual animals): 39.61 mm3 and 59.11 mm3 and 58.99 mm3 and 61.52 mm3 and 53.18 mm3 | Tumor volume (ECLC5 xenografts; 50 mg/kg BID, day 11, individual animals): 36.97 mm3 and 42.6 mm3 and 49.37 mm3 and 48.41 mm3 and 48.77 mm3 | Tumor volume (ECLC5 xenografts; 50 mg/kg BID, day 14, individual animals): 36.97 mm3 and 42.6 mm3 and 41.37 mm3 and 45.5 mm3 and 44.53 mm3 | Change in Tumor Volume (ECLC5 xenografts; 50 mg/kg BID): -100% | Area Under Curve of tumor growth, Mean (ECLC5 xenografts; 50 mg/kg QD): -1322 | Tumor volume (ECLC5 xenografts; [4]): 85.31 mm3 and 83.83 mm3 and 88.56 mm3 and 91.87 mm3 and 90.28 mm3 | Tumor volume (ECLC5 xenografts; 50 mg/kg QD, day 4, individual animals): 72.18 mm3 (2×) and 75.04 mm3 and 68.07 mm3 and 69.38 mm3 | Tumor volume (ECLC5 xenografts; 50 mg/kg QD, day 7, individual animals): 50.89 mm3 and 53.18 mm3 and 49.83 mm3 (2×) and 48.77 mm3 | Tumor volume (ECLC5 xenografts; 50 mg/kg QD, day 11, individual animals): 52.07 mm3 (2×) and 57.91 mm3 and 49.83 mm3 and 48.77 mm3 | Tumor volume (ECLC5 xenografts; 50 mg/kg QD, day 14, individual animals): 52.07 mm3 (2×) and 57.91 mm3 and 48.77 mm3 and 62.73 mm3 | Change in Tumor Volume (ECLC5 xenografts; 50 mg/kg QD): -57.7775% and -61.9945% and -68.4282% and -71.9277% and -43.6309% | tumor regression (ECLC5 xenografts; 100 mg per kg QD): 90.3% ± 4% | Area Under Curve of tumor growth, Mean (ECLC5 xenografts; 100 mg/kg QD): -1970 | Tumor volume (ECLC5 xenografts; [5]): 91.87 mm3 (2×) and 88.56 mm3 and 85.31 mm3 (2×) | Tumor volume (ECLC5 xenografts; 100 mg/kg QD, day 4, individual animals): 47.71 mm3 and 52.07 mm3 (2×) and 49.83 mm3 and 50.97 mm3 | Tumor volume (ECLC5 xenografts; 100 mg/kg QD, day 7, individual animals): 38.79 mm3 and 35.19 mm3 and 30.11 mm3 (2×) and 25.42 mm3 | Tumor volume (ECLC5 xenografts; 100 mg/kg QD, day 11, individual animals): 38.79 mm3 and 35.19 mm3 and 26.94 mm3 (2×) and 30.11 mm3 | Tumor volume (ECLC5 xenografts; 100 mg/kg QD, day 14, individual animals): 34.35 mm3 and 35.19 mm3 and 26.94 mm3 and 28.5 mm3 and 30.11 mm3 | Change in Tumor Volume (ECLC5 xenografts; 100 mg/kg QD): -85.621% and -100% and -81.7724% and -84.0971% | Papp at 3 h, 1 μM [2]: 24 ×10⁻⁶ cm/s
